Patent publication US20240109865A1, “INDAZOLE COMPOUNDS AS KINASE INHIBITORS” (TYRA BIOSCIENCES, INC., priority 2020, published 2024)

How the values were obtained:
Assay in all cases: Kinase assay, binding constants (Kd), kinase-tagged T7 phage, qPCR
FGFR2 = FGFR2 (Homo sapiens (Human), UniProt P21802)
In short: (§1)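 Competition binding: kinase-tagged T7 phage lysates mixed with immobilized biotinylated ligand on streptavidin beads plus compound (11-point 3-fold dilution series, 0.9% DMSO final). Bound kinase eluted with free ligand and quantified by qPCR. Kd from Hill equation fit, slope fixed at −1.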

FGFR4 = FGFR4 (Homo sapiens (Human), UniProt P22455)
In short: as §1

FGFR3 = FGFR3 (Homo sapiens (Human), UniProt P22607)
In short: as §1

FGFR1 = FGFR1 (Homo sapiens (Human), UniProt P11362)
In short: as §1

FGFR3 (V555M) = FGFR3 (V555M) (Homo sapiens (Human), UniProt P22607, V555M); details: V555M mutant
In short: as §1

FGFR4, sequence (P22455 22-802): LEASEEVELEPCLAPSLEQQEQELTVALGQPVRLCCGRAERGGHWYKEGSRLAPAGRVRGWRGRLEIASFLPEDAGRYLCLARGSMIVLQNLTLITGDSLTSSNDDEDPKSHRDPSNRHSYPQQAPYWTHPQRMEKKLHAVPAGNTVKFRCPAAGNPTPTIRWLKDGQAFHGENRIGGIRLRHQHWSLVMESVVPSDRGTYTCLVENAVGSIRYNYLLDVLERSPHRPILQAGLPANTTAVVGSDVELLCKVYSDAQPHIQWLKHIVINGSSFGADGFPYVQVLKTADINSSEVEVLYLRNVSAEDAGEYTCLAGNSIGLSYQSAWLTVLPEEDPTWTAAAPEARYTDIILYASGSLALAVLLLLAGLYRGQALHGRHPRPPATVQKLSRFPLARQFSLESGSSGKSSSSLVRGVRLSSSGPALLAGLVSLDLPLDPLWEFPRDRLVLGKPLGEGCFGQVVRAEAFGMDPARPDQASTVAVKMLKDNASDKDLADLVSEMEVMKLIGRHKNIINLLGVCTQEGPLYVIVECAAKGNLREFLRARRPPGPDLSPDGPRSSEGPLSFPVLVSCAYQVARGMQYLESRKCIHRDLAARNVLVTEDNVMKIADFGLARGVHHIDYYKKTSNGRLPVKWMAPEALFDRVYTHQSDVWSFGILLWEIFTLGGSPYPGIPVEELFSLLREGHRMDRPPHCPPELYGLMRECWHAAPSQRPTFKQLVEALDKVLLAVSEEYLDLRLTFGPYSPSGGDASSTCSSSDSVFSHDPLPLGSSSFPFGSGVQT
FGFR3, sequence (P22607 23-806): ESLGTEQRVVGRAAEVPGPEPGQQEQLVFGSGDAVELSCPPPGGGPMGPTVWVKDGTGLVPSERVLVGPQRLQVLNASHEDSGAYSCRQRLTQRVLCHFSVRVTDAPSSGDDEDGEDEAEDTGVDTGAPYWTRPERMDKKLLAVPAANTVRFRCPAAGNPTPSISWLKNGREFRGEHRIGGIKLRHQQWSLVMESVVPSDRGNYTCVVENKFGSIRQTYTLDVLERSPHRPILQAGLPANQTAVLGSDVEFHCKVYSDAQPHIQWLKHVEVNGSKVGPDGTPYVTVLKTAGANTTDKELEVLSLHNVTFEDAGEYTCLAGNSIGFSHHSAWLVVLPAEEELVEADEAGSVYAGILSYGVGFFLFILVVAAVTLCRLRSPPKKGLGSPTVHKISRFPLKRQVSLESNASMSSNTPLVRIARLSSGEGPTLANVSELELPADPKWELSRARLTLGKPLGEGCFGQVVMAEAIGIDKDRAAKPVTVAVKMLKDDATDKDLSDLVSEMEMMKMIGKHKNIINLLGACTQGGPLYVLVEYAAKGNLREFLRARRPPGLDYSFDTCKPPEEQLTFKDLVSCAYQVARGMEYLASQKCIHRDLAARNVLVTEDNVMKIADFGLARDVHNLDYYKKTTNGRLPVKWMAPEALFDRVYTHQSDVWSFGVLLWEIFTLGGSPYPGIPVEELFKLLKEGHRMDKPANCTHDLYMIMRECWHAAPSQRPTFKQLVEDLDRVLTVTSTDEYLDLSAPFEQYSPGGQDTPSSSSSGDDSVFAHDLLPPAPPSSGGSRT
FGFR3 (V555M), sequence (P22607 23-806 V555M): as the sequence (P22607 23-806) above, with V533M counted along it
FGFR1, sequence (P11362 22-822): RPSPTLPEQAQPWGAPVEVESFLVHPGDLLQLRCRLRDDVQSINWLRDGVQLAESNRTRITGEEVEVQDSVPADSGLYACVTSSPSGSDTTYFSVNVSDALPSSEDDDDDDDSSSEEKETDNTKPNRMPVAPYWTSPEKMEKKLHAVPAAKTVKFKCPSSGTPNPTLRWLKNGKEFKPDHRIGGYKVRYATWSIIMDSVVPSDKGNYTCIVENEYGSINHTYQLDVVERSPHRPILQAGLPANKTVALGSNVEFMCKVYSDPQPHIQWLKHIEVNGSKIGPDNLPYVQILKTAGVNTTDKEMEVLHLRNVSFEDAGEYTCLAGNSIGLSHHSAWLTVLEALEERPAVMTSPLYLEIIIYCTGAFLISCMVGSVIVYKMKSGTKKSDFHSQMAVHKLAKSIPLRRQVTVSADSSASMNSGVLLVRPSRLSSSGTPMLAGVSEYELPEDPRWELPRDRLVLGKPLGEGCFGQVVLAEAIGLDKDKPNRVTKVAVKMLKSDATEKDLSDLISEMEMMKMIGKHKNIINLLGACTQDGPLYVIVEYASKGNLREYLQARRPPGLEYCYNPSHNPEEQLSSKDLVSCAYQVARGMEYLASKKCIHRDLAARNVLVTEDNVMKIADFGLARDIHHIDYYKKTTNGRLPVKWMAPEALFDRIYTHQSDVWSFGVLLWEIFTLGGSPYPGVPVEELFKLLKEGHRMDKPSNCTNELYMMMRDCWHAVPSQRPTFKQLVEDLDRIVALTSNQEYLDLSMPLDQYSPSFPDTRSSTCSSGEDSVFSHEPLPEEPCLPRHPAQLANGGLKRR
FGFR2, sequence (P21802 22-821): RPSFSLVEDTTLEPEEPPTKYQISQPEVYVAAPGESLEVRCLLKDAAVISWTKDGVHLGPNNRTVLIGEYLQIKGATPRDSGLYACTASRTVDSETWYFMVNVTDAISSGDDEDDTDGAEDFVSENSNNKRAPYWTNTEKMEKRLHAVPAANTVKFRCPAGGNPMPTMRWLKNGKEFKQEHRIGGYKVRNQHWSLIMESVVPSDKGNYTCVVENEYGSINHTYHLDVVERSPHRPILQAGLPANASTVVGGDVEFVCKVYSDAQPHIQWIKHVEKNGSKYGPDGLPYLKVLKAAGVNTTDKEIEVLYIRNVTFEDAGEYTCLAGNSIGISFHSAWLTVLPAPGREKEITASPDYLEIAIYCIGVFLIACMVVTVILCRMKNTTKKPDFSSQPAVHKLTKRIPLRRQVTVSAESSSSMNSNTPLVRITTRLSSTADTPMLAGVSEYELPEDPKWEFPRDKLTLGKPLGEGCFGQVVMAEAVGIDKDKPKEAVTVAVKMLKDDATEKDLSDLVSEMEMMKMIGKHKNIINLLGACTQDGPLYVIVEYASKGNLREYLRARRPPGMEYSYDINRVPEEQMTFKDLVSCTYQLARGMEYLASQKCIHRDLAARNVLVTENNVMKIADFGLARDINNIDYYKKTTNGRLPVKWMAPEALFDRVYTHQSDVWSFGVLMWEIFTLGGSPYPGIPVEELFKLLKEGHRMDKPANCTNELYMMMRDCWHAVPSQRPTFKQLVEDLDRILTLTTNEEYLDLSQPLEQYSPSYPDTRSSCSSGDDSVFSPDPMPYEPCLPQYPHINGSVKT

Row | Structure (SMILES) | Kd (FGFR2) | Kd (FGFR4) | Kd (FGFR3) | Kd (FGFR1) | Kd (FGFR3 (V555M))
1 | COc1cc(-c2n[nH]c3ccc(O[C@H](C)c4c(C)cnnc4C)cc23)cnc1N1CCCC1 [Example 305, (R)-5-(1-(3,5-dimethylpyridazin-4-yl)ethoxy)-3-(5-methoxy-6-(pyrrolidin-1-yl)pyridin-3-yl)-1H-indazole] | > 300 nM | 20 to 100 nM | > 300 nM | > 300 nM | 100 to 300 nM
2 | COC1CC2(C1)CN(c1ccc(-c3n[nH]c4ccc(O[C@H](C)c5c(Cl)cnc(C)c5Cl)cc34)cn1)C2 [Example 238, 5-[(1R)-1-(3,5-dichloro-2-methyl-4-pyridyl)ethoxy]-3-[6-(6-methoxy-2-azaspiro[3.3]heptan-2-yl)-3-pyridyl]-1H-indazole] | 20 to 100 nM | 1 to 20 nM | 1 to 20 nM | 20 to 100 nM | 1 to 20 nM
3 | CNCc1cc(-c2n[nH]c3cc(OC)c(O[C@H](C)c4c(Cl)cncc4Cl)cc23)cnc1N1CC2(C1)CN(S(C)(=O)=O)C2 [Example 369, (R)-1-(5-(5-(1-(3,5-dichloropyridin-4-yl)ethoxy)-6-methoxy-1H-indazol-3-yl)-2-(6-(methylsulfonyl)-2,6-diazaspiro[3.3]heptan-2-yl)pyridin-3-yl)-N-methylmethanamine] | > 300 nM | 20 to 100 nM | 20 to 100 nM | > 300 nM | 20 to 100 nM
4 | C[C@@H](Oc1ccc2[nH]nc(-c3cnc(N4CC5(CCCN(S(C)(=O)=O)C5)C4)c(C#N)c3)c2c1)c1c(Cl)cncc1Cl [Example 338, (R)-5-(5-(1-(3,5-dichloropyridin-4-yl)ethoxy)-1H-indazol-3-yl)-2-(6-(methylsulfonyl)-2,6-diazaspiro[3.5]nonan-2-yl)nicotinonitrile] | > 300 nM | 1 to 20 nM | 20 to 100 nM | 100 to 300 nM | 1 to 20 nM
5 | Cc1cnnc(C)c1[C@@H](C)Oc1ccc2[nH]nc(-c3ccc(N4CCN5CCC[C@@H]5C4)nc3)c2c1 [Example 175, 3-[6-[(8aR)-3,4,6,7,8,8a-hexahydro-1H-pyrrolo[1,2-a]pyrazin-2-yl]-3-pyridyl]-5-[(1R)-1-(3,5-dimethylpyridazin-4-yl)ethoxy]-1H-indazole] | 1 to 20 nM | 1 to 20 nM | 1 to 20 nM | 1 to 20 nM | 1 to 20 nM
6 | C[C@@H](Oc1ccc2[nH]nc(-c3cnn(C4CCN(S(C)(=O)=O)CC4)c3)c2c1)c1c(Cl)cncc1Cl [Example 66, 5-[(1R)-1-(3,5-dichloro-4-pyridyl)ethoxy]-3-[1-(1-methylsulfonyl-4-piperidyl)pyrazol-4-yl]-1H-indazole] | 1 to 20 nM | 1 to 20 nM | 1 to 20 nM | 1 to 20 nM | 1 to 20 nM
7 | COc1cc2[nH]nc(-c3cnc(N4CC5(COC5)C4)c(C#N)c3)c2cc1O[C@H](C)c1c(C)cnnc1C [Example 324, (R)-5-(5-(1-(3,5-dimethylpyridazin-4-yl)ethoxy)-6-methoxy-1H-indazol-3-yl)-2-(2-oxa-6-azaspiro[3.3]heptan-6-yl)nicotinonitrile] | 20 to 100 nM | 1 to 20 nM | 20 to 100 nM | 20 to 100 nM | 1 to 20 nM
8 | C[C@@H](Oc1ccc2[nH]nc(-c3ccc(N4CCC[C@H]4CO)nc3)c2c1)c1c(Cl)cncc1Cl [Example 237, ((S)-1-(5-(5-((R)-1-(3,5-dichloropyridin-4-yl)ethoxy)-1H-indazol-3-yl)pyridin-2-yl)pyrrolidin-2-yl)methanol] | 1 to 20 nM | 1 to 20 nM | 1 to 20 nM | 1 to 20 nM | 1 to 20 nM
9 | Cc1cnnc(C)c1[C@@H](C)Oc1ccc2[nH]nc(-c3ccc(N4CC5(CCCN(S(C)(=O)=O)C5)C4)nc3)c2c1 [Example 188, 5-[(1R)-1-(3,5-dimethylpyridazin-4-yl)ethoxy]-3-[6-(8-methylsulfonyl-2,8-diazaspiro[3.5]nonan-2-yl)-3-pyridyl]-1H-indazole] | 1 to 20 nM | 1 to 20 nM | 1 to 20 nM | 20 to 100 nM | 1 to 20 nM
10 | COc1cc2[nH]nc(-c3cnc(N4CC5(C4)CN(S(C)(=O)=O)C5)c(F)c3)c2cc1O[C@H](C)c1c(Cl)cnc(C)c1Cl [Example 243, 5-[(1R)-1-(3,5-dichloro-2-methyl-4-pyridyl)ethoxy]-3-[5-fluoro-6-(2-methylsulfonyl-2,6-diazaspiro[3.3]heptan-6-yl)-3-pyridyl]-6-methoxy-1H-indazole] | 1 to 20 nM | 1 to 20 nM | 1 to 20 nM | 1 to 20 nM | 1 to 20 nM
11 | COc1cc2[nH]nc(-c3cnc(N4CC[C@H](C(C)(C)O)C4)c(C#N)c3)c2cc1O[C@H](C)c1c(C)cnnc1C [Example 316, 5-(5-((R)-1-(3,5-dimethylpyridazin-4-yl)ethoxy)-6-methoxy-1H-indazol-3-yl)-2-((S)-3-(2-hydroxypropan-2-yl)pyrrolidin-1-yl)nicotinonitrile] | 20 to 100 nM | 1 to 20 nM | 1 to 20 nM | 20 to 100 nM | 1 to 20 nM
12 | Cc1ncc(Cl)c([C@@H](C)Oc2ccc3[nH]nc(-c4ccc(N5CCN6C(=O)CCC6C5)nc4)c3c2)c1Cl (stereo partly drawn) [Example 225, 2-[5-[5-[(1R)-1-(3,5-dichloro-2-methyl-4-pyridyl)ethoxy]-1H-indazol-3-yl]-2-pyridyl]-1,3,4,7,8,8a-hexahydropyrrolo[1,2-a]pyrazin-6-one] | 1 to 20 nM | 1 to 20 nM | 1 to 20 nM | 20 to 100 nM | 1 to 20 nM
13 | C[C@@H](Oc1ccc2[nH]nc(-c3ccc(N4CC(C(F)F)C4)nc3)c2c1)c1c(Cl)cncc1Cl [Example 252, (R)-5-(1-(3,5-dichloropyridin-4-yl)ethoxy)-3-(6-(3-(difluoromethyl)azetidin-1-yl)pyridin-3-yl)-1H-indazole] | 20 to 100 nM | 1 to 20 nM | 1 to 20 nM | 20 to 100 nM | 1 to 20 nM
14 | CCOC(=O)N1CC2(C1)CN(c1ccc(-c3n[nH]c4ccc(O[C@@H](C)c5c(Cl)cnc(F)c5Cl)cc34)cn1)C2 [Example 193, Ethyl 6-[5-[5-[(1S)-1-(3,5-dichloro-2-fluoro-4-pyridyl)ethoxy]-1H-indazol-3-yl]-2-pyridyl]-2,6-diazaspiro[3.3]heptane-2-carboxylate] | > 300 nM | > 300 nM | > 300 nM | > 300 nM | 100 to 300 nM
15 | C[C@H](Oc1ccc2[nH]nc(-c3ccc(N4CC5(C4)CN(S(C)(=O)=O)C5)nc3)c2c1)c1c(Cl)cnc(F)c1Cl [Example 199, 5-[(1S)-1-(3,5-dichloro-2-fluoro-4-pyridyl)ethoxy]-3-[6-(2-methylsulfonyl-2,6-diazaspiro[3.3]heptan-6-yl)-3-pyridyl]-1H-indazole] | > 300 nM | > 300 nM | 100 to 300 nM | > 300 nM | 20 to 100 nM
16 | COc1c(O[C@H](C)c2c(C)cnnc2C)ccc2[nH]nc(-c3ccc(N4CC5(C4)CN(S(C)(=O)=O)C5)nc3)c12 [Example 200, 5-[(1R)-1-(3,5-dimethylpyridazin-4-yl)ethoxy]-4-methoxy-3-[6-(2-methylsulfonyl-2,6-diazaspiro[3.3]heptan-6-yl)-3-pyridyl]-1H-indazole] | > 300 nM | > 300 nM | > 300 nM | > 300 nM | 100 to 300 nM
17 | Cc1cc(-c2n[nH]c3ccc(O[C@H](C)c4c(Cl)cnc(C)c4Cl)cc23)cnc1N1CC(CO)(CO)C1 [Example 234, [1-[5-[5-[(1R)-1-(3,5-dichloro-2-methyl-4-pyridyl)ethoxy]-1H-indazol-3-yl]-3-methyl-2-pyridyl]-3-(hydroxymethyl)azetidin-3-yl]methanol] | 100 to 300 nM | 1 to 20 nM | 1 to 20 nM | 100 to 300 nM | 1 to 20 nM
18 | C[C@@H](Oc1ccc2[nH]nc(-c3ccc(C4CCNCC4)nc3)c2c1)c1c(Cl)cncc1Cl [Example 69, 5-[(1R)-1-(3,5-dichloro-4-pyridyl)ethoxy]-3-[6-(4-piperidyl)-3-pyridyl]-1H-indazole] | 1 to 20 nM | 1 to 20 nM | 1 to 20 nM | 1 to 20 nM | 1 to 20 nM
19 | C[C@@H](Oc1ccc2[nH]nc(-c3cnc(N4CC(C(F)(F)F)C4)c(C#N)c3)c2c1)c1c(Cl)cncc1Cl [Example 347, (R)-5-(5-(1-(3,5-dichloropyridin-4-yl)ethoxy)-1H-indazol-3-yl)-2-(3-(trifluoromethyl)azetidin-1-yl)nicotinonitrile] | > 300 nM | 1 to 20 nM | 20 to 100 nM | > 300 nM | 20 to 100 nM
20 | Cc1ncc(Cl)c([C@@H](C)Oc2ccc3[nH]nc(-c4ccc(N5CC(C)(O)C5)nc4)c3c2)c1Cl [Example 222, 1-[5-[5-[(1R)-1-(3,5-dichloro-2-methyl-4-pyridyl)ethoxy]-1H-indazol-3-yl]-2-pyridyl]-3-methyl-azetidin-3-ol] | 20 to 100 nM | 1 to 20 nM | 1 to 20 nM | 20 to 100 nM | 1 to 20 nM
21 | COC(=O)N1CC2(C1)CN(c1ccc(-c3n[nH]c4ccc(O[C@H](C)c5c(C)cnnc5C)cc34)cn1)C2 [Example 150, methyl 6-[5-[5-[(1R)-1-(3,5-dimethylpyridazin-4-yl)ethoxy]-1H-indazol-3-yl]-2-pyridyl]-2,6-diazaspiro[3.3]heptane-2-carboxylate] | 1 to 20 nM | 1 to 20 nM | 1 to 20 nM | 1 to 20 nM | 1 to 20 nM
22 | Cc1ncc(Cl)c([C@@H](C)Oc2cc3c(-c4cnc(N5CCC5)c(F)c4)n[nH]c3cc2Cl)c1Cl [Example 274, 3-[6-(azetidin-1-yl)-5-fluoro-3-pyridyl]-6-chloro-5-[(1R)-1-(3,5-dichloro-2-methyl-4-pyridyl)ethoxy]-1H-indazole] | 100 to 300 nM | 20 to 100 nM | 20 to 100 nM | 100 to 300 nM | 1 to 20 nM
